Measured values as given in article PMC8272148, “Antioxidant Serine-(NSAID) Hybrids with Anti-Inflammatory and Hypolipidemic Potency” (Molecules, 2021).
Marks after values point to notes of the source that are not given here.

Legend:
[1] = tested on: rat hepatic microsomal membrane lipid peroxidation; assay: Inhibition of rat hepatic microsomal membrane lipid peroxidation (ferrous ascorbate induced, TBA reactive material); format: biochemical; conditions: 100 μM compound, after 45 min of incubation
Description: The peroxidation of the heat-inactivated rat hepatic microsomal fraction was induced by ferrous ascorbate. The studied compounds, in dimethylsulfoxide, were added at concentrations of 1 μM–1 mM. Aliquots were taken from the incubation mixture (37 °C) for 45 min. Lipid peroxidation was assessed spectrophotometrically (535/600 nm) as a 2-thiobarbituric acid reactive material. The incubation mixture and solvents were found not to interfere with the assay.

[2] = Interaction with the stable radical DPPH; conditions: DPPH 200 μM, after 30 min
Description: Compounds, dissolved in absolute ethanol, at concentrations of 25–200 μM, were added to an equal volume of an ethanolic solution of DPPH (final concentration 200 μM) at room temperature (22 ± 2 °C). Absorbance (517 nm) was recorded after 30 min [26]. For the calculation of percent interaction, the residual absorbance of DPPH Ai (at a fixed concentration) after its interaction with the examined compounds (at various concentrations) was compared with the control absorbance Ao, without the addition of compounds, following the equation: (1) Percent interaction=100−(Ai/Ao×100)

[3] = tested on: carrageenan-induced rat paw edema; assay: Carrageenan-induced rat paw edema; format: in vivo, Wistar rats; conditions: ip, 0.15 mmol/kg i.p., 3.5 h after carrageenan, vs controls, read-out: % Edema Reduction
Description: An amount of 0.1 mL of an aqueous carrageenan solution (1% w/v) was injected into the hind paw of adult Wistar rats (6 rats were used for each compound). The tested compounds (in water with a few drops of Tween 80) were administered i.p. (0.15 mmol/kg) 5 min before the carrageenan administration. The produced edema, after 3.5 h, was estimated as paw weight increase.

[4] = molecular target: T1, soybean lipoxygenase 1-B (Glycine max, UniProt P08170); assay: In vitro inhibition of soybean lipoxygenase; format: biochemical; conditions: linoleic acid (100 μM) as substrate, after 7 min of incubation
T1 sequence (P08170 1-839): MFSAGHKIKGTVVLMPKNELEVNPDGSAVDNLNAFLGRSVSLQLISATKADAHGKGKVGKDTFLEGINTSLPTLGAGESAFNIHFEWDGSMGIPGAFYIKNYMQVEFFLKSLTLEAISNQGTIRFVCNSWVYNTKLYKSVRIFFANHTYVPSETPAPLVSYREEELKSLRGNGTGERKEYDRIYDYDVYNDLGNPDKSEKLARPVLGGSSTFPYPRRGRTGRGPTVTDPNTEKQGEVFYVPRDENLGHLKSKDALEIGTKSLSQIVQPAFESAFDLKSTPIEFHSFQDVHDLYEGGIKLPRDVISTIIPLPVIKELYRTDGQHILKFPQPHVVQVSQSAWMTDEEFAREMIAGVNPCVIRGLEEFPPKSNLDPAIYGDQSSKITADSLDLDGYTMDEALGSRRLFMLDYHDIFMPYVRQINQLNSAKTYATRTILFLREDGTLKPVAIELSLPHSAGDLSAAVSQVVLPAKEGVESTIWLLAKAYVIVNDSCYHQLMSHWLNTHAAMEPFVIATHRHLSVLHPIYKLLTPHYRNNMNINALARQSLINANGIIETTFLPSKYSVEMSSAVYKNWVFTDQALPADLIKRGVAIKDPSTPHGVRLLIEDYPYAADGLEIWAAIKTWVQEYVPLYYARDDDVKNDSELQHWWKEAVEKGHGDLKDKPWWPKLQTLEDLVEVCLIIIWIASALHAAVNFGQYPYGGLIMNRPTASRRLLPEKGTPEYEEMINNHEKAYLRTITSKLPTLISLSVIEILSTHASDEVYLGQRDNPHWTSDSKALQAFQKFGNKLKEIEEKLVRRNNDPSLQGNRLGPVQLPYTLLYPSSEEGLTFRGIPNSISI
Description: The reaction mixture contained the test compounds, dissolved in absolute ethanol (0.1 mL) at various concentrations, or the solvent (control, 0.1 mL), soybean lipoxygenase dissolved in 0.9% NaCl solution (250 u/mL, 0.2 mL) and sodium linoleate (100 μM) in Tris–HCl buffer, pH 9.0 (2.7 mL). The reaction was followed for 7 min at 28 °C, recording the absorbance of a conjugated diene structure at 234 nm, due to the formation of 13-hydroperoxy-linoleic acid. […] For the estimation of the type of inhibition, the above experiments were repeated, using sodium linoleate at 1 mM, which is higher than the saturating substrate concentration.

[5] = tested on: Triton WR1339 (tyloxapol)-induced hyperlipidemia; assay: Triton WR1339 (tyloxapol)-induced hyperlipidemia in rats; format: in vivo, Wistar rats; conditions: 150 μmol/kg i.p., rat plasma, 24 h, tyloxapol 200 mg/kg i.p.
Description: The examined compounds (0.15 mmol/kg) were administered i.p. one hour later. Blood was taken from the aorta after 24 h, for the determination of plasma total cholesterol, LDL cholesterol and triglyceride concentration, using commercial kits.

IC50 [4]: 90 µM
SMILES: CCOC(=O)C(COC(=O)C(C)c1cccc(C(=O)c2ccccc2)c1)NC(=O)/C=C/c1cc(C(C)(C)C)c(O)c(C(C)(C)C)c1 (stereo not shown) [Compound 12, (E)-ethyl 3-((2-(3-benzoylphenyl)propanoyl)oxy)-2-(3-(3,5-di-tert-butyl-4-hydroxyphenyl)acrylamido)propanoate]
Inhibition of Lipid Peroxidation, percent at 100 μM [1]: 20%/100 μM
Percent Interaction with DPPH ([2]; compound 25 μM): 20.0%
Percent Interaction with DPPH ([2]; compound 50 μM): 24.7%
Percent Interaction with DPPH ([2]; compound 100 μM): 53.8%
Percent Interaction with DPPH ([2]; compound 200 μM): 94.0%
inhibition in vivo at 150 µmol/kg [3]: 59%
% Reduction LDL-C (LDL cholesterol) [5]: 56.2 * %
% Reduction TC (total cholesterol) [5]: 53.4 ** %
% Reduction TG (triglycerides) [5]: 33.2 * %
